Laboratory results from PMC3740683, “ML212: A small-molecule probe for investigating fluconazole resistance mechanisms in Candida albicans” (Beilstein Journal of Organic Chemistry, 2013).

Assay: Secondary assay 3: fibroblast toxicity
Format: cell-based
Conditions: mouse, NIH-3T3 fibroblasts, murine 3T3 fibroblasts
Method: 11) Read relative fluorescence intensity (RFU) of wells on a standard plate reader as […]
measure of relative fungal growth. EnVision (Perkin Elmer) plate reader settings: […]
Secondary assay 3: fibroblast toxicity
Clear, flat-bottom, black, 384-well plates (Corning Catalog no. 3712BC Lot no.
35808016); geldanamycin (AG Scientific Catalog no. G-1047) 15 mM stock solution in […]
DMSO; fluconazole (Sequoia Research Ltd.) 2 mg/mL stock solution in PBS; Alamar […]
Blue (AG Scientific Catalog no. DAL1100, Lot no. 151016SA); PBS w/o calcium and […]
magnesium (Cellgro Catalog no. 21-040-CV)
Optimem medium (Invitrogen Catalog no. 31985-070; Lot no. 548536); 2.5% (v/v) fetal […]
bovine serum (Hyclone Catalog no.30071.03; Lot no. ARF26748); 1% (v/v) Pen/Strep […]
Test strain: NIH-3T3 mammalian fibroblasts (ATCC CRL No. 1658) […]
1) Plate cells in 384-well plates at 6,000 cells/well in 20 µL assay medium.
2) Incubate plates overnight at 37 °C under 5% CO2.
1) After overnight culture, pin compounds into wells at 100 nL/well using the CyBio […]
CyBi-Well pinning instrument.
2) After pinning compounds, add 20 µL of assay medium supplemented with […]
fluconazole to each well. […]
6) Read the relative fluorescence intensity (RFU) of wells on a standard plate reader as a measure of relative cell growth. EnVision (Perkin Elmer) plate reader […]
setup: Ex 544 nm, Em […], bandwidth12 nm, top read.

COC(=O)Cn1nc(-c2cccc(OC)c2)c2ccccc21 [Compound 36]
IC50 at 48 h: > 26 µM
